# Literature values, collected in US11737994B2, “Topical compositions for pain relief, manufacture and use” (priority 2014, dated 2023).
# Conditions: in words
structure (smiles),measurement,value
"CCCCCCCCC(=O)NCc1ccc(O)c(OC)c1 [Nonivamide, vanillylamide of n-nonanoic acid]",Heat stability,more heat-stable than capsaicin
